Source: patent US20140220134A1, “METHOD FOR TREATING DIABETES WITH EXTENDED RELEASE FORMULATION OF GLP-1 RECEPTOR AGONISTS” (Astrazeneca Pharamceuticals LP, priority 2011, published 2014)
Structures can show the parent of a compound that is named as a salt.

Experiments:
[1] = Fraction of drug in microparticles and in MCT oil carrier after storage; format: physicochemical
From the text: Mixtures ranged from 2% to 10% w/w of the active pharmaceutical ingredient. The mixed powder was transferred to an extruder where the temperature was adjusted according to the chosen polymer. Some polymers needed higher temperatures to produce a melt with good flow properties. The extruder contained twin screws that moved clockwise to produce efficient mixing. The material was extruded through a 1.5 mm orifice, collected, cooled at room temperature, and cut into short strands about 1-2 inches long. These strands were then fed into a 12-tooth rotor mill, followed by a sieving step to produce microparticles of about 20 to 100 microns. The microparticles were collected and stored at 5° C. until further use.
Experimental samples were prepared by dispersing about 50 mg of the microparticles into 0.75 mL of a MCT oil carrier. The samples were stored at 5° C. and 25° C. for two days, two weeks, or one month, at which times representative samples were tested. The fraction of drug that remained in the microparticles and the fraction of drug that partitioned into the MCT oil carrier were determined. Briefly, the samples were centrifuged to separate the microparticles from the MCT oil carrier. Each portion was treated independently to determine the amount of drug it contained. Results are reported on the basis of the percent residing in each independent portion.

[2] = Solubility in MCT oil; format: physicochemical; details: oil or lipid
[3] = PLGA copolymer, 1 Month Storage at 5° C.
[4] = PLGA copolymer, 1 Month Storage at 25° C.
[5] = PLGA copolymer, 2 Days Storage at 5° C.
[6] = PLGA copolymer, 2 Days Storage at 25° C.
[7] = polycaprolactone/PLGA copolymer, Two Weeks Storage, 5° C.
[8] = polycaprolactone/PLGA copolymer, Two Weeks Storage, 25° C.

| drug in MCT Carrier [1, 7] [%] | drug in Microparticles [1, 7] [%] | drug in MCT Carrier [1, 8] [%] | drug in Microparticles [1, 8] [%] | Molecule | drug in MCT Carrier [1, 3] [%] | drug in Microparticles [1, 3] [%] | drug in MCT Carrier [1, 4] [%] | drug in Microparticles [1, 4] [%] | drug in MCT Carrier [1, 5] [%] | drug in Microparticles [1, 5] [%] | drug in MCT Carrier [1, 6] [%] | drug in Microparticles [1, 6] [%] | solubility [2] [mg/mL] |
| --- | --- | --- | --- | --- | --- | --- | --- | --- | --- | --- | --- | --- | --- |
|  |  |  |  | CN(C)c1ccc(O)c2c1C[C@H]1C[C@H]3[C@H](N(C)C)C(O)=C(C(N)=O)C(=O)[C@@]3(O)C(O)=C1C2=O [minocycline, minocycline HCl] | 0.1 | 99.9 | 0.4 | 99.6 | 0.9 | 99.1 | 0.6 | 99.4 |  |
| 0.0 | 100.0 | 0.0 | 100.0 | CC[C@H](C)[C@H](NC(=O)[C@@H]1CCCN1C(=O)CNC(=O)[C@H](Cc1ccccc1)NC(=O)[C@H](CC(N)=O)NC(=O)[C@H](CC(N)=O)NC(=O)[C@H](CO)NC(=O)[C@H](CO)NC(=O)[C@H](Cc1c[nH]cn1)NC(=O)[C@@H](NC(=O)[C@H](CC(C)C)NC(=O)[C@H](Cc1ccccc1)NC(=O)[C@H](CC(N)=O)NC(=O)[C@H](C)NC(=O)[C@H](CC(C)C)NC(=O)[C@H](CCCNC(=N)N)NC(=O)[C@H](CCC(N)=O)NC(=O)[C@@H](NC(=O)[C@H](C)NC(=O)[C@@H]1CSSC[C@H](NC(=O)[C@@H](N)CCCCN)C(=O)N[C@@H](CC(N)=O)C(=O)N[C@@H]([C@@H](C)O)C(=O)N[C@@H](C)C(=O)N[C@@H]([C@@H](C)O)C(=O)N1)[C@@H](C)O)C(C)C)C(=O)N[C@@H](CC(C)C)C(=O)N1CCC[C@H]1C(=O)N1CCC[C@H]1C(=O)N[C@H](C(=O)N[C@@H](CC(N)=O)C(=O)N[C@H](C(=O)NCC(=O)N[C@@H](CO)C(=O)N[C@@H](CC(N)=O)C(=O)N[C@H](C(=O)N[C@@H](Cc1ccc(O)cc1)C(N)=O)[C@@H](C)O)C(C)C)[C@@H](C)O [pramlintide] | 0.3 | 99.7 | 0.0 | 100.0 | 0.0 | 100.0 | 0.0 | 100.0 |  |
|  |  |  |  | O=C(O)c1ccccc1O [salicylic acid] | 0.1 | 99.9 | 0.2 | 99.8 | 1.1 | 98.9 | 0.9 | 99.1 | > 30 |
|  |  |  |  | O=C([O-])c1ccccc1O.[Na+] [sodium salicylate] | 1.3 | 98.7 | 1.5 | 98.5 | 0.5 | 99.5 | 2.3 | 97.7 |  |
|  |  |  |  | bovine serum albumin | 0.0 | 100.0 | 0.0 | 100.0 | 0.0 | 100.0 | 0.0 | 100.0 |  |
|  |  |  |  | davalintide | 0.6 | 99.4 | 0.0 | 100.0 | 0.2 | 99.8 | 0.0 | 100.0 |  |
|  |  |  |  | insulin | 0.5 | 99.5 | 0.7 |  |  |  |  |  |  |
|  |  |  |  | metreleptin | 0.0 | 100.0 | 0.0 | 100.0 | 0.0 | 100.0 | 0.0 | 100.0 |  |
